Test results: patent publication US20230174554A1, “SOLID FORM OF MACROCYCLIC COMPOUND, PREPARATION THEREFOR AND USE THEREOF” (Shenzhen TargetRx. Inc., priority 2020, published 2023)
Converted amounts (≈) assume the structure as drawn.

Columns and labels:
Assay type in all cases: physicochemical
[1] = Competitive slurrying testing at room temperature (trans-crystallization); details: isobutanol, isopropanol and methyl tert-butyl ether, one day
Method: 10 mg of compound A crystal form I, crystal form IV, crystal form V and crystal form VI were added to 500 μL of three different solvent systems (isobutanol, isopropanol and methyl tert-butyl ether), respectively. The mixture was slurried at room temperature for one day. The solids were dried at 50° C. under vacuum overnight and characterized by XRPD.

[2] = Heating study to 190° C. with XRPD (trans-crystallization); details: heated to 190° C.
Method: A certain amount of compound A crystal form V and VI were weighed, heated to 190° C. and then characterized by XRPD.

[3] = Stability influencing factor tests of compound A crystal form I (high temperature, high humidity, illumination)
Method: Stability influencing factor tests were carried out on the samples of compound A crystal form I. The corresponding placement conditions and test results are listed in Table 5.

[4] = Solubility of the starting material (compound A crystal form I) in different solvents
[5] = Dynamic moisture adsorption and desorption analysis (DVS), hygroscopicity, XRPD after test
Method: The samples were tested for hygroscopicity using DVS Intrinsic (SMS, UK). 30-50 mg of a sample was placed into a sample pan, and the change of sample mass with humidity at 25° C. was recorded. The instrument parameters were:
After the hygroscopicity test was completed, the crystal form of the sample was tested by XRPD.

[6] = Accelerated stability study of the free base and crystalline salts (40° C./75% RH and 60° C., HPLC and XRPD)
Method: The crystals were tested for HPLC and XRPD in different time points.

[7] = Solubility and stability of the free base and crystalline salts in water, SGF, FaSSIF and FeSSIF; details: for Crystal form / crystallinity in the vehicle: XRPD
Excerpt: The solubility and stability of compound A crystal form, compound A maleate crystal form I and compound A acetate crystal form I in water, SGF (simulated gastric fluid), FaSSIF (simulated intestinal fluid in fasted state) and FeSSIF (simulated intestinal fluid in fed state) were studied.

[8] = High humidity (92.5% RH/25° C.), 0 days
[9] = High humidity (92.5% RH/25° C.), 5 days
[10] = High humidity (92.5% RH/25° C.), 10 days
[11] = High humidity (92.5% RH/25° C.), 37 days
[12] = High temperature (60° C.), 0 days
[13] = High temperature (60° C.), 5 days
[14] = High temperature (60° C.), 10 days
[15] = High temperature (60° C.), 37 days
[16] = Illumination (1.2*10^6 Lux · hr, 200 w · hr/m^2), 0 days
[17] = Illumination (1.2*10^6 Lux · hr, 200 w · hr/m^2), 5 days
[18] = Illumination (1.2*10^6 Lux · hr, 200 w · hr/m^2), 10 days
[19] = FaSSIF (simulated intestinal fluid in fasted state), 37 °C, fassif, thermodynamic from solid, sample 10 mg/ml
[20] = FeSSIF (simulated intestinal fluid in fed state), 37 °C, fessif, thermodynamic from solid, sample 10 mg/ml
[21] = SGF (simulated gastric fluid), 37 °C, simulated gastric fluid, thermodynamic from solid, SGF, sample 10 mg/ml
[22] = water, thermodynamic from solid, H2O, room temperature, sample 5 mg/ml

[2H]C([2H])([2H])n1nc2c(c1C#N)-c1cnc(N)c(c1)O[C@H](C)c1cc(F)ccc1C(=O)N(C)C2 [compound A crystal form IV, (10R)-7-amino-12-fluoro-2-(methyl-d3)-10,16-dimethyl-15-oxo-10,15,16,17-tetrahydro-2H-8,4-(metheno)pyrazolo[4,3-h][2,5,11]benzoxadiazacyclotetradecine-3-carbonitrile]
Trans-crystallization on competitive slurrying [1]: trans-crystallized to crystal form I

[2H]C([2H])([2H])n1nc2c(c1C#N)-c1cnc(N)c(c1)O[C@H](C)c1cc(F)ccc1C(=O)N(C)C2 [compound A crystal form V, (10R)-7-amino-12-fluoro-2-(methyl-d3)-10,16-dimethyl-15-oxo-10,15,16,17-tetrahydro-2H-8,4-(metheno)pyrazolo[4,3-h][2,5,11]benzoxadiazacyclotetradecine-3-carbonitrile]
Crystal form after heating [2]: transformed into crystal form I

[2H]C([2H])([2H])n1nc2c(c1C#N)-c1cnc(N)c(c1)O[C@H](C)c1cc(F)ccc1C(=O)N(C)C2 [compound A crystal form I, (10R)-7-amino-12-fluoro-2-(methyl-d3)-10,16-dimethyl-15-oxo-10,15,16,17-tetrahydro-2H-8,4-(metheno)pyrazolo[4,3-h][2,5,11]benzoxadiazacyclotetradecine-3-carbonitrile]
Content [3, 8]: 99.9%
Shape [3, 8]: White solid
Total impurity content [3, 8]: <0.05%
Content [3, 9]: 99.5%
Shape [3, 9]: White solid
Total impurity content [3, 9]: <0.05%
Content [3, 10]: 99.7%
Shape [3, 10]: White solid
Total impurity content [3, 10]: <0.05%
Content [3, 11]: 99.4%
Shape [3, 11]: White solid
Total impurity content [3, 11]: <0.05%
Content [3, 12]: 99.9%
Shape [3, 12]: White solid
Total impurity content [3, 12]: <0.05%
Content [3, 13]: 98.8%
Shape [3, 13]: White solid
Total impurity content [3, 13]: <0.05%
Content [3, 14]: 100.4%
Shape [3, 14]: White solid
Total impurity content [3, 14]: <0.05%
Content [3, 15]: 99.8%
Total impurity content [3, 15]: <0.05%
Content [3, 16]: 99.9%
Shape [3, 16]: White solid
Total impurity content [3, 16]: <0.05%
Content [3, 17]: 98.7%
Total impurity content [3, 17]: <0.05%
Content [3, 18]: 99.1%
Total impurity content [3, 18]: <0.05%
Solubility ([4]; Acetone): ~246000 µg/mL (≈ 601 mM)
Solubility ([4]; Acetone, listed as starting material): greater than 100 mg/mL
Solubility ([4]; Acetonitrile): ~183000 µg/mL (≈ 447 mM)
Solubility ([4]; Butanone): ~173000 µg/mL (≈ 423 mM)
Solubility ([4]; Dichloromethane): ~240000 µg/mL (≈ 586 mM)
Solubility ([4]; Dichloromethane, listed as starting material): greater than 100 mg/mL
Solubility ([4]; Ethanol): ~21000 µg/mL (≈ 51.3 mM)
Solubility ([4]; Ethyl acetate): ~100000 µg/mL (≈ 244 mM)
Solubility ([4]; Isobutanol): ~1700 µg/mL (≈ 4.15 mM)
Solubility ([4]; Isopropanol): ~2500 µg/mL (≈ 6.11 mM)
Solubility ([4]; Isopropanol, listed as starting material): 1000 to 2000 µg/mL
Solubility ([4]; Isopropyl acetate): ~22000 µg/mL (≈ 53.7 mM)
Solubility ([4]; Methanol): ~190000 µg/mL (≈ 464 mM)
Solubility ([4]; Methyl tert-butyl ether): ~2500 µg/mL (≈ 6.11 mM)
Solubility ([4]; Methyl tert-butyl ether, listed as starting material): 1000 to 2000 µg/mL
Solubility ([4]; Tetrahydrofuran): ~215000 µg/mL (≈ 525 mM)
Solubility ([4]; Tetrahydrofuran, listed as starting material): greater than 100 mg/mL
Solubility ([4]; acetonitrile, organic solvent or mixture, thermodynamic from solid, Acetonitrile, read-out: Solubility): > 100000 µg/mL
Solubility ([4]; butanone, organic solvent or mixture, thermodynamic from solid, Butanone, read-out: Solubility): > 100000 µg/mL
Solubility ([4]; ethanol, organic solvent or mixture, thermodynamic from solid, Ethanol, read-out: Solubility): ~20000 µg/mL (≈ 48.8 mM)
Solubility ([4]; ethyl acetate, organic solvent or mixture, thermodynamic from solid, Ethyl acetate, read-out: Solubility): > 100000 µg/mL
Solubility ([4]; isobutanol, organic solvent or mixture, thermodynamic from solid, Isobutanol, read-out: Solubility): 1000 to 2000 µg/mL (≈ 2.44 to 4.88 mM)
Solubility ([4]; isopropyl acetate, organic solvent or mixture, thermodynamic from solid, Isopropyl acetate, read-out: Solubility): ~20000 µg/mL (≈ 48.8 mM)
Solubility ([4]; methanol, organic solvent or mixture, thermodynamic from solid, Methanol, read-out: Solubility): > 100000 µg/mL
Solubility ([4]; water): ~1000 µg/mL (≈ 2.44 mM)
Solubility ([4]; water, thermodynamic from solid, Water, read-out: Solubility): 1000 to 2000 µg/mL (≈ 2.44 to 4.88 mM)
Crystal form before and after the DVS test ([5]; XRPD): not changed
DVS weight gain ([5]; humidity increased from 0% RH to 80% RH, 25° C.): 0.17%
Purity % ([6]; 0 days; HPLC): 99.2%
Crystal form ([6]; 0 days; XRPD): Unchanged
Crystal form ([6]; 40° C./75% RH, 7 days, XRPD): not changed
Purity ([6]; 40° C./75% RH, 7 days; HPLC): not changed
Purity % ([6]; 40° C./75% RH, 7 days; HPLC): 99.4%
Crystal form ([6]; 40° C./75% RH, 7 days; XRPD): Unchanged
Crystal form ([6]; 60° C., 7 days, XRPD): not changed
Purity ([6]; 60° C., 7 days; HPLC): not changed
Purity % ([6]; 60° C., 7 days; HPLC): 99.3%
Crystal form ([6]; 60° C., 7 days; XRPD): Unchanged
solubility at 0.5 h [7, 19]: 170 µg/mL
solubility at 24 h [7, 19]: 110 µg/mL
Solubility ([7]; FaSSIF (simulated intestinal fluid in fasted state), fassif, thermodynamic from solid, FaSSIF (simulated intestinal fluid in fasted state), read-out: Solubility): < 3000 µg/mL
Crystal form / crystallinity in the vehicle ([7]; FaSSIF): nearly amorphous
solubility at 0.5 h [7, 20]: 550 µg/mL
solubility at 24 h [7, 20]: 380 µg/mL
Solubility ([7]; FeSSIF (simulated intestinal fluid in fed state), fessif, thermodynamic from solid, FeSSIF (simulated intestinal fluid in fed state), read-out: Solubility): < 3000 µg/mL
Crystal form / crystallinity in the vehicle ([7]; FeSSIF): nearly amorphous
solubility at 0.5 h [7, 21]: 10900 µg/mL
solubility at 24 h [7, 21]: 10200 µg/mL
Solubility ([7]; SGF (simulated gastric fluid), simulated gastric fluid, thermodynamic from solid, SGF (simulated gastric fluid), read-out: Solubility): > 5000 µg/mL
Solubility ([7]; water): < 3000 µg/mL
Crystal form / crystallinity in the vehicle ([7]; water): not changed
solubility at 0.5 h [7, 22]: 110 µg/mL
solubility at 24 h [7, 22]: 95 µg/mL
Solubility ([7]; water, listed as free base): less than 0.2 mg/mL
